The test system of data set [1] is stroma-dependent myeloma cells (primary MM, MOLP5). The data set is described as follows: Viability of stroma-dependent myeloma cells co-cultured with bone marrow stromal cells (imaging, 3 days). The note with it: primary MM and MOLP5, FIG. 1B-1C. In kind it is cell-based. An excerpt: (§1) BRD9647 was identified in a phenotypic screening of multiple myeloma cells as a growth inhibitor of certain stroma-dependent myeloma cells. […] FIG. 1B is a plot showing viability of multiple myeloma cell lines (primary multiple myeloma (primary MM) cells (with stroma), MOLP5 (with stroma), and MM1S (with stroma)) treated with various concentrations of BRD9647. For these experiments GFP-labeled MOLP5 and MM1S cells were co-cultured with unlabeled primary human bone marrow stromal cells in 384-well plates and exposed to increasing concentrations of BRD9647 for 3 days. At the end of this period, wells were imaged in the GFP channel with the IXMicro automated high-throughput microscope (Molecular Devices), remaining GFP positive cells were quantified using the MetaXpress software (Molecular Devices) and expressed as percentages of DMSO (vehicle) controls. Unlabeled primary MM cells were similar treated with BRD9647 but were stained with the calcein-acetoxymethyl ester dye at the end of the treatment period. The dye fluoresces green inside viable cells that contain esterase enzymes. Viable cells were imaged and quantified similar to GFP-positive myeloma cell-lines using size, shape and staining intensity to distinguish primary MM from stromal cells. […] Viable cells in these experiments after 3 days of compound exposure were measured using the Cell Titer Glo reagent (Promega).

Data set [2] relates to ~100 cell lines from the Broad Institute CTD2 Center. The data set is described as follows: Viability of ~100 Broad CTD2 cell lines (Cell Titer Glo, 3 days). The note with it: 3 days compound exposure, FIG. 1D. In kind it is cell-based.
Text: as §1
On the technique in general: Cellular ATP, detected with luciferase, serves as a proxy for viable cell number.

The subject of data set [3] is MOLP5 cells expressing AZIN1-WT. The data set is described as follows: Viability of MOLP5 cells expressing wild-type AZIN1 under BRD9647. The settings on record: FIG. 4D, 5A; lentiviral AZIN1-WT. In kind it is cell-based. An excerpt:
MOLP5 cells sensitive to BRD9647 contained a mutation in AZIN1 (FIG. 4B). The mutation in AZIN1 was S367G. MOLP5 cells raised to be resistant to BRD9647 through serial exposures to increasing concentrations of BRD9647 over 3 months (MOLP5-R) lost the AZIN1 mutation that conferred sensitivity to BRD9647 (FIG. 4C). For experiments in FIGS. 4B and 4C, RNA was isolated from MOLP5 or MOLP5-R cells and converted into complementary DNA (cDNA). The AZIN1 polynucleotide was PCR amplified from cDNA then subject to Sanger sequencing. […] The growth of MOLP5 AZIN1-WT expressing cells in the presence of BRD9647 resembles the growth of untreated MOLP5 cells. For these experiments, lentiviral vectors (pLX_TRC304) encoding the AZIN1 open reading frame with the wild-type sequence or S367G mutant sequence and the puromycin resistance gene were transduced into MOLP5 cells which were then subjected to puromycin selection. […] A schematic of AZIN1 S367G's role in polyamine synthesis is shown at FIG. 6.

For data set [4], the system named is MOLP5 cells. Briefly: Spermidine rescue of growth inhibition in MOLP5 cells. The class given is cell-based. The settings on record: MOLP5 + 10 or 100 μM spermidine, FIG. 7A. How it is done:
MOLP5 cells with 100 μM spermidine (“MOLP5+100 μM Spd”), and MOLP5 cells with 10 μM spermidine (“MOLP5+10 μM Spd”), each.
Polyamines such as spermidine rescued the effects of BRD9647. FIG. 7B depicts the structure of spermidine. […] However, BRD9647 may be reactive with spermidine, as polyamines such as spermidine or spermine can directly react with BRD9647 via a benzoylation reaction (FIG. 7C) to form benzoylated polyamine products (FIG. 8 and FIG. 9).

Data set [5] concerns MOLP5 cells. Briefly: Gene expression profiling of treated MOLP5 cells (microarray, GSEA). The class given is cell-based. The settings on record: 10 μM, 6 hours. How it is done:
Gene-expression analysis identified endoplasmic reticulum (ER) stress as an effect of BRD9647 in BRD9647-sensitive cells. […] For this experiment, MOLP5 cells were exposed to DMSO or 10 μM BRD9647 for 6 hours then subject to total RNA extraction using the TRIzol reagent (Thermo-Fisher). RNA was then hybridized to the Affymetrix U133 2.0 Plus oligonucleotide microarray (Affymetrix) and relative transcripts quantified following the manufacturer's protocol. Differential gene expression analysis was conducted using the Comparative Marker Selection module of GenePattern software (www.broadinstitute.org/genepattern). […] As show in FIG. 2C, Connectivity Map (CMap) analysis was conducted (www.broadinstitute.org/cmap) to compare a gene expression profile of […] with known gene expression profiles of over 5000 compounds to identify potential drugs showing a similar mechanism of action. Protein synthesis inhibitors of interest identified by the analysis are shown in boxes (FIG. 2C).

Data set [6] concerns benzoylated lysines on proteins. Briefly: Immunoblot for benzoylated lysines (Kbz antibody) in treated cells. In kind it is cell-based. The note with it: versus DMSO controls, FIG. 15.
The subject of data set [7] is MOLP5 cells. The data set is described as follows: Growth inhibition of MOLP5 cells by BRD9647 analogs. The class given is cell-based. The note with it: FIG. 1E; for growth inhibition in MOLP5 cells compared with other analogs: various concentrations. From the text:
BRD9647 was identified in a phenotypic screening of multiple myeloma cells as a growth inhibitor of certain stroma-dependent myeloma cells. […] FIG. 1B is a plot showing viability of multiple myeloma cell lines (primary multiple myeloma (primary MM) cells (with stroma), MOLP5 (with stroma), and MM1S (with stroma)) treated with various concentrations of BRD9647. For these experiments GFP-labeled MOLP5 and MM1S cells were co-cultured with unlabeled primary human bone marrow stromal cells in 384-well plates and exposed to increasing concentrations of BRD9647 for 3 days. At the end of this period, wells were imaged in the GFP channel with the IXMicro automated high-throughput microscope (Molecular Devices), remaining GFP positive cells were quantified using the MetaXpress software (Molecular Devices) and expressed as percentages of DMSO (vehicle) controls. Unlabeled primary MM cells were similar treated with BRD9647 but were stained with the calcein-acetoxymethyl ester dye at the end of the treatment period. The dye fluoresces green inside viable cells that contain esterase enzymes. Viable cells were imaged and quantified similar to GFP-positive myeloma cell-lines using size, shape and staining intensity to distinguish primary MM from stromal cells. FIG. 1C depicts images showing the viability of primary MM and MOLP5 myeloma cell lines that received BRD9647 treatment in the presence and absence of stromal co-culture. […] Viable cells in these experiments after 3 days of compound exposure were measured using the Cell Titer Glo reagent (Promega).
Fluoro-benzoyl analogs of BRD9647 were synthesized and used to study the structure-function relationship between BRD9647 and each compound's ability to inhibit growth in MOLP5 cells. […] The BRD9647 analogs measured were either mono-fluorinated at the para (FIG. 1F), meta (FIG. 1G), or ortho (FIG. 1H) positions of the benzoyl ring, or tri-fluorinated at both meta positions and one ortho position of the ring (FIG. 1I). […]

The subject of data set [8] is purified proteins (recombinant proteins, histones). The data set is described as follows: Incubation of labeled compound with purified proteins (SDS-PAGE autoradiography, mass spectrometry). In kind it is biochemical. The note with it: FIG. 12, 13.
The subject of data set [9] is BRD9647-sensitive cells. The data set is described as follows: Tracing of radiolabeled compound in cell extracts (TRIzol, TLC, protein extract). The class given is cell-based. The note with it: TRIzol or protein extract of treated cells, FIG. 10, 14. As to the method: FIG. 10 is a diagram showing results of a tracing experiment with a TRIzol treated extract of cells treated with 10 μM ^14C-BRD9647 for six hours.
In FIG. 14, the workflow and results of a ^14C-BRD9647 tracing experiment with protein extract from cells treated with ^14C-BRD9647 are shown.

These results are taken from patent US10851051B2, “Compositions and methods for treating multiple myeloma” (THE BROAD INSTITUTE, INC., priority 2015, dated 2020).

“Also recorded” adds a separate entry of the source.

Turning to `COc1ccc(N(C(=O)c2ccccc2)S(=O)(=O)c2cc(OC)ccc2OC)cc1` [BRD9647], in [1], the “toxicity to myeloma cells with and without stromal co-culture” value is “selectively toxic to stroma-dependent myeloma cells”. In addition, the “viability of cell line panel” value in [2] is given as “inhibited stroma-dependent multiple myeloma (MM) cells, but not most cell lines”. Further, in data set [3], the “sensitivity of MOLP5 cells expressing wild-type AZIN1” value is on record as “wild-type AZIN1 expression in MOLP5 cells conferred resistance to BRD9647”. In addition, the “growth inhibition in presence of excess spermidine” value in data set [4] is recorded as “excess spermidine rescued BRD9647 growth inhibition”. Besides, the “gene expression signature of treated cells” value in data set [5] is “under ER stress or amino acid deprivation”. For the same molecule, the “benzoylated lysines in treated cells” value in data set [6] was “an increase in benzoylated lysines”.

Consider `COc1ccc(N(C(=O)c2ccc(F)cc2)S(=O)(=O)c2cc(OC)ccc2OC)cc1` [Compound 1], for which the “growth inhibitory activity in MOLP5 cells compared with BRD9647” value in data set [7] (FIG. 3) is “similar, if not increased efficacy to BRD9647”. In addition, the “growth inhibition in MOLP5 cells compared with other analogs” value in data set [7] was “increased growth inhibition at each concentration of active over m-fluorobenzoyl (zb-179-2) or o-fluorobenzoyl analogs (zb-16-14)”.

On to `COc1ccc(N(C(=O)c2ccccc2)S(=O)(=O)c2cc(OC)ccc2OC)cc1` [^13C-BRD9647], for which, in [8], the “covalent binding to purified proteins” value is listed as “identify labeled lysines”.

Regarding `COc1ccc(N(C(=O)c2ccccc2)S(=O)(=O)c2cc(OC)ccc2OC)cc1` [^14C-BRD9647], in [9], the “protein binding in treated cells” value is “suggest protein binding or modification of proteins; also recorded: tight protein binding at ˜15 kD molecular weight”. For the same molecule, the “covalent binding to purified proteins” value in data set [8] is “covalent binding of ^14C-BRD9647 with purified proteins was possible”.

In the case of `COc1ccc(N(C(=O)c2cc(F)cc(F)c2F)S(=O)(=O)c2cc(OC)ccc2OC)cc1` [Compound 4], the “growth inhibition in MOLP5 cells compared with other analogs” value in data set [7] is listed as “all mono substituted analogs appear to inhibit growth substantially more than the tri-fluorinated analog”.
